Data on eight compounds can be found in patent US5200409A, “Composition and use of substituted 1,3-dithiolo-and 1,4-dithiinoquinoxalines as an antimicrobial” (The Dow Chemical Company, priority 1992, dated 1993).

Test [1] concerns Escherichia coli (Ec). As to the kind of experiment: Minimum inhibitory concentration (MIC) in nutrient agar. The test is classed as cell-based, Escherichia coli ATCC 11229. An outline of the steps:
(§1)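 Growth inhibition was read visually after 48 h at 30° C on nutrient agar plates containing test compound at 500, 250, 100, 50, 25, 10, 5, 2.5, 1.0 or 0 ppm. Plates at pH 6.8 and pH 8.2 were inoculated with bacterial suspensions of 10^8 CFU/ml.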

Test [2] relates to Proteus vulgaris (Pv). The test is described as above. It is filed as cell-based, Proteus vulgaris ATCC 881. In a few lines: as §1
For test [3], the system named is Pseudomonas aeruginosa (PRD-10). The description is as above. It is filed as cell-based, Pseudomonas aeruginosa ATCC 15442. An outline of the steps: as §1
Test [4] relates to Salmonella choleraesuis (Sc). The description is as above. It is filed as cell-based, Salmonella choleraesuis ATCC 10708. The following applies: Salmonella enterica. An outline of the steps:
as §1

Test [5] has as its system Aspergillus niger (An). Briefly: Minimum inhibitory concentration (MIC) in malt yeast agar. It is filed as cell-based, Aspergillus niger ATCC 16404. The following applies: read-out: Minimum Inhibitory Concentration, An. An outline of the steps: (§2)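 These fungal MICs come from an agar dilution series in malt yeast agar spanning 500 to 1.0 ppm. The plates were incubated at 30° C and read after 72 hours.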

The test system of test [6] is Candida albicans (Ca). The test is described as above. It is filed as cell-based, Candida albicans ATCC 10231. The note with it: read-out: Minimum Inhibitory Concentration, Ca. In a few lines: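 Compound dispersed in malt yeast agar at final 500, 250, 100, 50, 25, 10, 5, 2.5, 1.0 and 0 ppm (from 1% acetone/water solution); plates dried 24 h, then inoculated with saline/octylphenoxy polyethoxy ethanol suspensions of 7-day cultures diluted 1:9. Incubated at 30° C; read at 48 h for yeast, 72 h for fungi.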

Test [7] has as its system Penicillium chrysogenum (Pc). The description is as above. The following applies: read-out: Minimum Inhibitory Concentration, Pc. It is filed as cell-based, Penicillium chrysogenum ATCC 9480. In a few lines: as §2
In test [8] the test system is Trichoderma viride (Tv). The test is described as above. It is filed as cell-based, Trichoderma viride ATCC 8678. The note with it: read-out: Minimum Inhibitory Concentration, Tv. An outline of the steps:
as §2

The test system of test [9] is Aureobasidium pullulan (Ap). The test is described as above. The note with it: read-out: Minimum Inhibitory Concentration, Ap. The test is classed as cell-based, Aureobasidium pullulan ATCC 16622. In a few lines:
as §2

Where [10] appears, read: 48 h, pH 6.8, read-out: Minimum Inhibitory Concentration, Ec.
Setting [11] is: 48 h, pH 8.2, read-out: Minimum Inhibitory Concentration, Ec.
[12] abbreviates: 48 h, pH 6.8, read-out: Minimum Inhibitory Concentration, Pv.
[13] abbreviates: 48 h, pH 8.2, read-out: Minimum Inhibitory Concentration, Pv.
Setting [14] is: 48 h, pH 6.8, read-out: Minimum Inhibitory Concentration, PRD.
Setting [15] is: 48 h, pH 8.2, read-out: Minimum Inhibitory Concentration, PRD.
The mark [16] stands for this setting: 48 h, pH 6.8, read-out: Minimum Inhibitory Concentration, Sc.
Setting [17] is: 48 h, pH 8.2, read-out: Minimum Inhibitory Concentration, Sc.
Setting [18] is: malt yeast agar, 30° C., 72 hours for fungi.
Setting [19] is: malt yeast agar, 30° C., 48 hours for yeast.
[20] abbreviates: malt yeast agar, 30° C., 48 hours for yeast and 72 hours for fungi.

Converted amounts (≈) assume the structure as drawn. Where two headings read alike, the source gives them in different places. Bounds are passed on as bounds.

For the compound `N#CC1=C(C#N)Sc2nc3ccccc3nc2S1` [E, 1,4-dithiino-(2,3-b)-quinoxaline-2,3-dicarbonitrile], the MIC in [1] (setting [10]), in test [1] (setting [11]), in test [2] (setting [12]), in [2] (setting [13]), in [3] (setting [14]) and in test [3] (setting [15]) was greater than 500 µg/mL in each case. The MIC is greater than 500 µg/mL in [4] (setting [16]); greater than 500 µg/mL in test [4] (setting [17]); less than 10 µg/mL in [5] (setting [18]); less than 10 µg/mL in test [6] (setting [19]); less than 10 µg/mL in test [7] (setting [18]); 100 µg/mL (≈ 373 µM) in test [8] (72 h). Besides, in [9] (setting [20]), the MIC is less than 10 µg/mL.
Turning to `Cc1ccc2nc3c(nc2c1)SC(C#N)=C(C#N)S3` [D, 7-Methyl-1,4-dithiino-(2,3-b)quinoxaline-2,3-dicarbonitrile], the MIC in test [1] (setting [10]), in test [1] (setting [11]), in test [2] (setting [12]), in [2] (setting [13]), in test [3] (setting [14]) and in [3] (setting [15]) was greater than 500 µg/mL throughout. Also, the MIC in test [4] (setting [16]) was greater than 500 µg/mL; in test [4] (setting [17]), greater than 500 µg/mL; in test [5] (72 h), 50 µg/mL (≈ 177 µM); in test [6] (48 h), 50 µg/mL (≈ 177 µM); in test [7] (72 h), 50 µg/mL (≈ 177 µM); in [8] (72 h), 100 µg/mL (≈ 354 µM). In addition, the MIC in [9] (setting [20]) was determined as 25 µg/mL (≈ 88.5 µM).
On to `N#CC(C#N)=C1Sc2nc3ccc(Cl)cc3nc2S1` [O, 6-chloro-1,3-dithiolo-(4,5-b)-quinoxaline-2-ylidene-propanedinitrile], for which the MIC in [1] (setting [10]), in test [1] (setting [11]), in test [2] (setting [12]), in [2] (setting [13]), in test [3] (setting [14]) and in test [3] (setting [15]) was greater than 500 µg/mL each time. Besides, the MIC in [4] (setting [16]) is greater than 500 µg/mL; in test [4] (setting [17]), greater than 500 µg/mL; in test [5] (setting [18]), 500 µg/mL (≈ 1650 µM); in test [6] (setting [19]), greater than 500 µg/mL; in test [7] (setting [18]) it was 500 µg/mL (≈ 1650 µM); in test [8] (setting [18]), greater than 500 µg/mL. Besides, in test [9] (setting [20]), the MIC came to 500 µg/mL (≈ 1650 µM).
Regarding `N#CC1=C(C#N)Sc2nc3cc([N+](=O)[O-])ccc3nc2S1` [A, 7-nitro-1,4-dithiino-(2,3-b)-quinoxaline-2,3-dicarbonitrile], the MIC in test [1] (setting [11]) is greater than 500 µg/mL; in test [1] (pH 6.8, nutrient agar, 30° C., 48 hours, read-out: Minimum Inhibitory Concentration, Ec), 25 µg/mL (≈ 79.8 µM); in test [2] (setting [13]), greater than 500 µg/mL; in test [2] (pH 6.8, nutrient agar, 30° C., 48 hours, read-out: Minimum Inhibitory Concentration, Pv), 50 µg/mL (≈ 160 µM); in test [3] (setting [15]), greater than 500 µg/mL; in [3] (pH 6.8, nutrient agar, 30° C., 48 hours, read-out: Minimum Inhibitory Concentration, PRD), 250 µg/mL (≈ 798 µM). Besides, the MIC in test [4] (setting [17]) is greater than 500 µg/mL; in test [4] (pH 6.8, nutrient agar, 30° C., 48 hours, read-out: Minimum Inhibitory Concentration, Sc), 50 µg/mL (≈ 160 µM); in test [6] (48 h), 2.5 µg/mL (≈ 7.98 µM); in test [8] (72 h) it was 10 µg/mL (≈ 31.9 µM); in test [9], 2.5 µg/mL (≈ 7.98 µM).
In the case of `N#CC1=C(C#N)Sc2nc3cc([N+](=O)[O-])c([N+](=O)[O-])cc3nc2S1` [B, 7,8-Dinitro-1,4-dithiino-(2,3-b)quinoxaline-2,3-dicarbonitrile], the MIC is 250 µg/mL (≈ 698 µM) in test [1] (setting [10]); greater than 500 µg/mL in [1] (setting [11]); greater than 500 µg/mL in test [2] (setting [12]); greater than 500 µg/mL in [2] (setting [13]); greater than 500 µg/mL in test [3] (setting [14]); greater than 500 µg/mL in test [3] (setting [15]). The MIC in test [4] (setting [16]) is 500 µg/mL (≈ 1400 µM); in test [4] (setting [17]), greater than 500 µg/mL; in test [5] (72 h) it was 25 µg/mL (≈ 69.8 µM); in [6] (48 h), 25 µg/mL (≈ 69.8 µM); in test [7] (72 h) it was 10 µg/mL (≈ 27.9 µM); in test [8] (72 h) it was 50 µg/mL (≈ 140 µM). For the same compound, in test [9], the MIC is 5 µg/mL (≈ 14 µM).
Regarding `N#CC1=C(C#N)Sc2nc3cc(Cl)ccc3nc2S1` [C, 7-chloro-1,4-dithiino-(2,3-b)-quinoxaline-2,3-dicarbonitrile], the MIC in [1] (setting [10]), in test [1] (setting [11]), in test [2] (setting [12]), in test [2] (setting [13]), in test [3] (setting [14]) and in test [3] (setting [15]) was greater than 500 µg/mL in each case. Moreover, the MIC in [4] (setting [16]) is greater than 500 µg/mL; in [4] (setting [17]) it was greater than 500 µg/mL; in test [5] (setting [18]), 25 µg/mL (≈ 82.6 µM); in [6] (setting [19]), less than 10 µg/mL; in test [7] (setting [18]), less than 10 µg/mL; in test [8] (72 h), 250 µg/mL (≈ 826 µM). Besides, in [9] (setting [20]), the MIC was less than 10 µg/mL.
On to `N#CC(C#N)=C1Sc2nc3ccc([N+](=O)[O-])cc3nc2S1` [L, 6-nitro-1,3-dithiolo-(4,5-b)-quinoxaline-2-ylidene-propanedinitrile], for which the MIC in [1] (setting [10]), in test [1] (setting [11]), in test [2] (setting [12]), in test [2] (setting [13]), in test [3] (setting [14]) and in test [3] (setting [15]) was greater than 500 µg/mL each time. Further, the MIC was greater than 500 µg/mL in test [4] (setting [16]); greater than 500 µg/mL in test [4] (setting [17]); 2.5 µg/mL (≈ 7.98 µM) in test [5] (72 h); 10 µg/mL (≈ 31.9 µM) in [6] (setting [19]); 2.5 µg/mL (≈ 7.98 µM) in [7] (72 h); 5 µg/mL (≈ 16 µM) in test [9].
Consider `N#CC(C#N)=C1Sc2nc3cc([N+](=O)[O-])c([N+](=O)[O-])cc3nc2S1` [M, 6,7-dinitro-1,3-dithiolo-(4,5-b)-quinoxaline-2-ylidene-propanedinitrile], for which the MIC in test [1] (setting [10]), in test [1] (setting [11]), in [2] (setting [12]), in test [2] (setting [13]), in [3] (setting [14]) and in [3] (setting [15]) was greater than 500 µg/mL throughout. Besides, the MIC in [4] (setting [16]) is 500 µg/mL (≈ 1400 µM); in [4] (setting [17]), greater than 500 µg/mL; in [5] (72 h) it was 2.5 µg/mL (≈ 6.98 µM); in test [6] (48 h) it was 2.5 µg/mL (≈ 6.98 µM); in test [7] (72 h) it was 2.5 µg/mL (≈ 6.98 µM); in [8] (72 h), 10 µg/mL (≈ 27.9 µM). Also, in test [9], the MIC is 2.5 µg/mL (≈ 6.98 µM).
